Where two headings read alike, the source gives them in different places.
Tests used:
BT-474 = experiment: In vitro cell proliferation inhibition, WST assay; assay type: cell-based, human; details: BT-474 cells, cultured for 3 days, read-out: BT-474 (nM) proliferation inhibitory activity (IC50 value)
Experimental: Test of In Vitro Cell Proliferation Inhibition of Test Compound
As a human-derived cancer cell strain, BT-474 was used. Cells were all cultured in a 37° C., 5% CO2 incubator in a medium in which 10% bovine fetal serum (ICN) and 50 units ml penicillin/60 μg/ml streptomycin solution (GIBCO) were added to Dulbecco's Modified Essential Medium (DMEM, Nacalai Tesque, Inc).

[1] = tested on: NCI-N87 cells (human stomach cancer cell strain); experiment: in vivo anti-tumor assessment, NCI-N87 cells transplanted into mammary fat pad of nude mouse
Experimental: NCI-N87 cells (human stomach cancer cell strain) were transplanted into a mammary fat pad of a female nude mouse (BALB/cA Jcl-nu/nu, CLEA Japan, Inc) at 5×10^6 cells/mouse (day 0). On day 5, a long diameter and a short diameter of a tumor were measured with a caliper, and mice were divided into groups (N=6) so that a tumor size between groups became equal. A test compound (20, 80 mg/kg) suspended in a 0.5% methylcellulose (MC) solution was orally administered from day 5 on for 15 consecutive days, and the anti-tumor effect was expressed by a ratio (T/C %) of an average value of a tumor size between a compound-administered group (T) and a control (C, 0.5% MC) group on day 20.
Results of in vivo anti-tumor assessment of a compound VIII-11 are shown in Table 54, and results of in vivo anti-tumor assessment of a compound VIII-66 are shown in Table 55.

HER2 = biological target: T1, HER2 (Homo sapiens, UniProt P04626); experiment: Enzyme inhibitory activity on HER2 (time resolution fluorescence, biotinylated poly-Glu-Tyr substrate); assay type: biochemical
T1 construct: purchased Carna Biosciences, Inc; host or cells: insect cell expression system
How it was run: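 Insect-cell-expressed HER2 (1000 ng/ml working stock) with biotinylated poly-Glu-Tyr (4:1; 3.125 μg/ml stock) and ATP (290 μM solution) in TBS with MgCl2, MnCl2, Na3VO4 and BSA, 60 min at room temperature. 10-point 4-fold dilutions from a 1 mM top solution. Phosphotyrosine detected by TR-FRET with Eu-antibody and streptavidin-XL.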

EGFR = biological target: T2, EGFR (Homo sapiens, UniProt P00533); experiment: Enzyme inhibitory activity on EGFR (time resolution fluorescence, biotinylated poly-Glu-Tyr substrate); assay type: biochemical
T2 construct: purchased Carna Biosciences, Inc; host or cells: insect cell expression system
How it was run: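 Insect-cell-expressed EGFR phosphorylated biotinylated poly-Glu-Tyr (4:1) for 60 min at room temperature in TBS with MgCl2, MnCl2, Na3VO4 and BSA. Enzyme 250 ng/ml, substrate 3.125 μg/ml and ATP 125 μM as working solutions. EDTA stop; Eu anti-phosphotyrosine/streptavidin-XL time-resolved fluorescence read; 10-point 4-fold dilutions.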

[2] = day 5 (start of administration, grouping), 20 mg/kg administrated group, oral, N=6
[3] = day 5 (start of administration, grouping), 80 mg/kg administrated group, oral, N=6
[4] = day 20, 20 mg/kg orally for 15 consecutive days from day 5
[5] = day 20, 80 mg/kg orally for 15 consecutive days from day 5
[6] = HER2 purified from insect cell expression system, ATP solution 290 μM, room temperature, 60 minutes
[7] = EGFR purified from insect cell expression system, ATP solution 125 μM, room temperature, 60 minutes
[8] = enzyme reaction at room temperature for 60 minutes

T2 sequence (P00533 25-1210): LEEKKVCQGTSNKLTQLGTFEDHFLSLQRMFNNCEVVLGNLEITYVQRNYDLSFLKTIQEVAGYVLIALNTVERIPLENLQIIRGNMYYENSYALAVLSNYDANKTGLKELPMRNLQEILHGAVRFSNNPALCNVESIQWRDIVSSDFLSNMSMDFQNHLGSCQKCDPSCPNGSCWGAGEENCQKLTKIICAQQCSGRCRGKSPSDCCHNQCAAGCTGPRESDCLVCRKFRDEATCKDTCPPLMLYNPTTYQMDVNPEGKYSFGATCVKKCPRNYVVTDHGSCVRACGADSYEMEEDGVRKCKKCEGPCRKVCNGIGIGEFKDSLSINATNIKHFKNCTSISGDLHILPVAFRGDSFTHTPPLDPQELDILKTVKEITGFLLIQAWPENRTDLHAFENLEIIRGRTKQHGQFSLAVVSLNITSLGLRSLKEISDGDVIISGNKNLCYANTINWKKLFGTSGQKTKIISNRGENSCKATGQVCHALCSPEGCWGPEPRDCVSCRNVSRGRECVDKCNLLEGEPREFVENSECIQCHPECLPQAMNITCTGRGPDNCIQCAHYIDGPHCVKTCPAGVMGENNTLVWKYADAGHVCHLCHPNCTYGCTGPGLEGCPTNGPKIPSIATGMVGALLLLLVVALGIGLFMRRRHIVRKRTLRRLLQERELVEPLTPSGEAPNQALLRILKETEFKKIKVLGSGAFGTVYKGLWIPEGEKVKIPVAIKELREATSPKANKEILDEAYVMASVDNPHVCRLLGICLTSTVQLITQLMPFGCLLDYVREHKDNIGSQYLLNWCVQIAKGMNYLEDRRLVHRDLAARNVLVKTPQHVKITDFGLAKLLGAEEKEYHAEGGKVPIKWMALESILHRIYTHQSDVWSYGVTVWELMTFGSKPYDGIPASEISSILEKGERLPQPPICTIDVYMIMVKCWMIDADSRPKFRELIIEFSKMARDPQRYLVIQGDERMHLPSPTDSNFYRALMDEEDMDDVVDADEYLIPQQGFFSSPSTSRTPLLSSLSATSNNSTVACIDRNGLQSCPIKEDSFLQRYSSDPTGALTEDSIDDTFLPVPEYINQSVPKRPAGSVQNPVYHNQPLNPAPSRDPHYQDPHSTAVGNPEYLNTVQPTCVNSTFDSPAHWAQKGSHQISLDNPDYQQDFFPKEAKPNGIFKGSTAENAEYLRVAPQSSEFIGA
T1 sequence (P04626 23-1255): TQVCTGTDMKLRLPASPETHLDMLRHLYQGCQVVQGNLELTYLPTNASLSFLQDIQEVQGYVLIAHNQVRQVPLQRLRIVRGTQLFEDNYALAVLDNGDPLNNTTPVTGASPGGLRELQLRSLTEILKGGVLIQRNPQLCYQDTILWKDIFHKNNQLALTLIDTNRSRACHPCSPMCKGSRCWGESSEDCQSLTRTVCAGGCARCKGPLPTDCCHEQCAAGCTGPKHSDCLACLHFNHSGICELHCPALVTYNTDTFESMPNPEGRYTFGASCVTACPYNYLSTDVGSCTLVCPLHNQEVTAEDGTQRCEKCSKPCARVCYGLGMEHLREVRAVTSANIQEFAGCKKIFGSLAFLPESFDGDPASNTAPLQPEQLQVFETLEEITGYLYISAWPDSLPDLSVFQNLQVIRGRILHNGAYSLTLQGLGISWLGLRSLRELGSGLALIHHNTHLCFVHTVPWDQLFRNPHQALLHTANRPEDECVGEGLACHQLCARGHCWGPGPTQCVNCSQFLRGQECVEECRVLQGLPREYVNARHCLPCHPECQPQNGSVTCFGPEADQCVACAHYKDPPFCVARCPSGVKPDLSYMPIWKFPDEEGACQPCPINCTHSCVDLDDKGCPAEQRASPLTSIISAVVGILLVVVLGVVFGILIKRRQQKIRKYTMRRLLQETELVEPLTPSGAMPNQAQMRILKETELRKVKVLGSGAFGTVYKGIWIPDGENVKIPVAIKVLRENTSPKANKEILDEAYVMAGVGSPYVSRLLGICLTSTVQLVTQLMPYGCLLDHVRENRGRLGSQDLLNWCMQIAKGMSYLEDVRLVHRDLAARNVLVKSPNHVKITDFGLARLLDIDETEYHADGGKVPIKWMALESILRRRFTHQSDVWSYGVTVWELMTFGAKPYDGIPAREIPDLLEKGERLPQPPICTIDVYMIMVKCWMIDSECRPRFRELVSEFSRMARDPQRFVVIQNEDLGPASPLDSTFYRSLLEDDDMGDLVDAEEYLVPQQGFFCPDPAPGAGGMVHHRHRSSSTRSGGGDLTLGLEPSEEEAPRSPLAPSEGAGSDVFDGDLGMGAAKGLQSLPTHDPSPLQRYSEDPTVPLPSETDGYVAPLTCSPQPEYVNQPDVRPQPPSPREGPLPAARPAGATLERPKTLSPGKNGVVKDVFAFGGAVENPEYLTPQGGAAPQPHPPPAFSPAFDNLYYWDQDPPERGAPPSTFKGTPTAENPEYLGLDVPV

Row | Compound | IC50 (BT-474) | IC50 (HER2; [6]) | IC50 (EGFR; [7]) | IC50 (BT-474; Homo sapiens, BT-474, 72 h) | IC50 (HER2; [8]) | IC50 (EGFR; [8]) | further results
1 | CC#C/C(=N\OCCN(C)CCO)c1ccc2ncnc(Nc3ccc(OCc4cccc(F)c4)c(Cl)c3)c2c1.Cl.Cl [VIII-66] | 8 nM | 43 nM | 27 nM | – | – | – | Mean of tumor size [1, 2]: 134 mm^3; Mean of tumor size [1, 3]: 150 mm^3; Mean of tumor size [1, 4]: 154 mm^3; T/C % (ratio of average tumor size, compound-administered group vs control group) [1, 4]: 32%; Mean of tumor size [1, 5]: 17 mm^3; T/C % (ratio of average tumor size, compound-administered group vs control group) [1, 5]: 4%
2 | CC#C/C(=N\OCCN1CCCC1)c1ccc2ncnc(Nc3ccc(OCc4cccc(F)c4)c(Cl)c3)c2c1 [VIII-11] | – | 45 nM | 43 nM | 26 nM | – | – | Mean of tumor size [1, 2]: 197 mm^3; Mean of tumor size [1, 3]: 197 mm^3; Mean of tumor size [1, 4]: 356 mm^3; T/C % (ratio of average tumor size, compound-administered group vs control group) [1, 4]: 54%; Mean of tumor size [1, 5]: 193 mm^3; T/C % (ratio of average tumor size, compound-administered group vs control group) [1, 5]: 29%
3 | CC#C/C(=N\OC[C@H]1CCCN1)c1ccc2ncnc(Nc3ccc(OCc4cccc(F)c4)c(Cl)c3)c2c1 [VIII-85] | 11 nM | 33 nM | 32 nM | – | – | – | –
4 | CC#C/C(=N\OCCN1CCOCC1)c1ccc2ncnc(Nc3ccc4c(cnn4Cc4cccc(F)c4)c3)c2c1 [VIII-195] | – | – | – | 29 nM | 43 nM | 45 nM | –
5 | COCC#C/C(=N\OCCN1CCCC1)c1ccc2ncnc(Nc3ccc(OCc4cccc(F)c4)c(Cl)c3)c2c1 [VIII-124] | – | – | – | 14 nM | 38 nM | 40 nM | –
6 | CC#CC(=NOCC1NC(=O)OC1C)c1ccc2ncnc(Nc3ccc(OCc4cccc(F)c4)c(Cl)c3)c2c1 (stereo not drawn) [VIII-77] | 11 nM | 246 nM | 217 nM | – | – | – | –
7 | CC#C/C(=N\OC[C@H]1CNC[C@@H](C)O1)c1ccc2ncnc(Nc3ccc(OCc4ccccn4)c(Cl)c3)c2c1 [VIII-177] | – | – | – | 79 nM | 5.8 nM | 7.3 nM | –
8 | CC#C/C(=N\OC[C@H]1CN(C)CCN1)c1ccc2ncnc(Nc3ccc(OCc4cccc(F)c4)c(Cl)c3)c2c1 [VIII-113] | – | 12 nM | 9.7 nM | 13 nM | – | – | –
9 | CC#C/C(=N\OCC1COCCN1)c1ccc2ncnc(Nc3ccc(COc4cccc(F)c4)c(Cl)c3)c2c1 (stereo not drawn) [VIII-220] | – | – | – | 23 nM | 449 nM | 263 nM | –
10 | CC#C/C(=N\OCCNC)c1ccc2ncnc(Nc3ccc(OCc4cccc(F)c4)c(Cl)c3)c2c1 [VIII-27] | 13 nM | 43 nM | 33 nM | – | – | – | –
11 | CC#C/C(=N\OC[C@@H]1NCCO[C@H]1C)c1ccc2ncnc(Nc3ccc(OCc4cccc(F)c4)c(Cl)c3)c2c1 [VIII-106] | – | 148 nM | 160 nM | 16 nM | – | – | –
12 | CC#C/C(=N\OC[C@@H]1C[C@@H](O)CN1)c1ccc2ncnc(Nc3ccc(OCc4ccccn4)c(Cl)c3)c2c1 [VIII-156] | – | – | – | 24 nM | 6.4 nM | 7 nM | –
13 | CC#C/C(=N\OCCN1CC[C@@H](OC(N)=O)C1)c1ccc2ncnc(Nc3ccc4c(cnn4Cc4cccc(F)c4)c3)c2c1 [VIII-193] | – | – | – | 25 nM | 15 nM | 14 nM | –
14 | CC#C/C(=N\OCC1COCCN1)c1ccc2ncnc(Nc3ccc(Oc4ccc(C)nc4)c(C)c3)c2c1 (stereo not drawn) [VIII-218] | – | – | – | 41 nM | 22 nM | 76 nM | –
15 | CC#C/C(=N\OCCNCC(F)(F)F)c1ccc2ncnc(Nc3ccc(OCc4cccc(F)c4)c(Cl)c3)c2c1 [VIII-57] | 15 nM | 303 nM | 301 nM | – | – | – | –
16 | CNCCO/N=C(\C#CCOC)c1ccc2ncnc(Nc3ccc(OCc4cccc(F)c4)c(Cl)c3)c2c1 [VIII-123] | 31 nM | – | – | – | 38 nM | 24 nM | –
17 | O=S1(=O)CCN(CCON=C(c2ccccc2)c2ccc3ncnc(Nc4ccc(OCc5cccc(F)c5)c(Cl)c4)c3c2)CC1 [VIII-12] | – | 227 nM | 209 nM | 69 nM | – | – | –
18 | CC#C/C(=N\OCCNCCNC(C)=O)c1ccc2ncnc(Nc3ccc4c(cnn4Cc4cccc(F)c4)c3)c2c1 [VIII-184] | – | – | – | 9 nM | 7 nM | 10 nM | –
19 | CC#C/C(=N\OCCNC1CCN(S(C)(=O)=O)CC1)c1ccc2ncnc(Nc3ccc(OCc4ccccn4)c(Cl)c3)c2c1 [VIII-142] | – | – | – | 31 nM | 4.4 nM | 5.5 nM | –
20 | CC#C/C(=N\OC[C@@H]1COCCN1)c1ccc2ncnc(Nc3ccc4c(cnn4Cc4cccc(F)c4)c3)c2c1 [VIII-197] | – | – | – | 14 nM | 21 nM | 9 nM | –
21 | CC#C/C(=N\OC[C@H]1CCCN1CCO)c1ccc2ncnc(Nc3ccc(OCc4ccccn4)c(Cl)c3)c2c1 [VIII-159] | – | – | – | 15 nM | 19 nM | 16 nM | –
22 | CC#C/C(=N\OCCN1CCOCC1)c1ccc2ncnc(Nc3ccc(OCc4ccccn4)c(Cl)c3)c2c1 [VIII-163] | – | – | – | 38 nM | 27 nM | 23 nM | –
23 | CC#C/C(=N\OCCNC)c1ccc2ncnc(Nc3ccc(OCc4cccnc4)c(Cl)c3)c2c1 [VIII-216] | – | – | – | 32 nM | 7 nM | 22 nM | –
24 | CC#C/C(=N\OC[C@H]1CN(CCO)CCN1)c1ccc2ncnc(Nc3ccc(OCc4cccc(F)c4)c(Cl)c3)c2c1 [VIII-112] | 8 nM | 13 nM | 11 nM | – | – | – | –
25 | CC#C/C(=N\OCCNC1CCN(S(C)(=O)=O)CC1)c1ccc2ncnc(Nc3ccc(OCc4cccc(F)c4)c(Cl)c3)c2c1 [VIII-60] | 14 nM | 30 nM | 54 nM | – | – | – | –
26 | CC#C/C(=N\OCCN(C)CCOC)c1ccc2ncnc(Nc3ccc(OCc4ccccn4)c(Cl)c3)c2c1 [VIII-146] | – | – | – | 45 nM | 10 nM | 12 nM | –

— US8202879B2, “Quinazoline derivatives having tyrosine kinase inhibitory activity” (Shionogi & Co., Ltd., priority 2005, dated 2012)
